The structures appear in SMILES notation.

In assay [1] the test system is OVCAR3 cells. The experiment in a line: MTT viability assay. The format is cell-based, human. For orientation: Tetrazolium assays rely on reduction of a dye to a coloured formazan, in cell work by metabolically active cells.
Procedure: NOE, MC[MUT] or OVCAR3 (as indicated) were starved of serum overnight and then cultured in 0.5% serum. […] Cell proliferation and viability assay was assessed before and after treatment with the PI3-kinase inhibitor LY294002 as follows. Cells were cultured in 96-well plates (15×10^3 cells/well) and serum starved overnight prior to the addition of LY294002 (Calbiochem) at various concentrations. […] For viability assay, cells were incubated with LY294002 as described above for 96 hours. MTT (25 ml of 5 ml/ml in PBS) was added to each well and incubated at 37° C. for 2 hours. Cells were then lysed by addition of 100 ml lysis buffer (20% SDS in 50% N,N-dimethylformamide, pH4.7). The cultures were set at 37° C. overnight and measured by microplate reader at 570 nm wavelength. Percent Maximum was converted from OD570 as indicated above.
Assay [2] has as its system OVCAR3 cells. Nature of the assay: programmed cell death, fluorescence based measurement of free DNA ends (Apo direct). Also noted: species or system human. The protocol:
This decrease in viability (FIG. 5B) was associated with an increased rate of programmed cell death at 24 (24% vs 51%) and 48 hour (22% vs 52%) as assessed by a fluorescence based measurement of free DNA ends Apo direct, Phoenix Flow Systems.

`O=c1cc(N2CCOCC2)oc2c(-c3ccccc3)cccc12` [LY294002]: the “times more sensitive to the effect of LY294002 (OVCAR3 vs NOE or MCF10F)” value in the assay on OVCAR3 cells [1] (in serum free media) was 100 times; in the assay on OVCAR3 cells [1] (in the presence of 0.5% FCS), 10 times. Besides, the “rate of programmed cell death” value with OVCAR3 cells [2] (24 hour, printed as 24% vs 51%) was found to be 51%; in the assay with OVCAR3 cells [2] (48 hour, printed as 22% vs 52%), 52%.
